Values of other authors as cited in patent publication US20180042936A1, “MAINTENANCE THERAPY USING TIANEPTINE” (GENOMIND, Inc., priority 2016, published 2018).
Where two headings read alike, the source gives them in different places.

Legend:
[1] = some individuals with treatment-resistant major depressive disorder and bipolar disorder
[2] = tested on: brain derived neurotrophic factor (BDNF); conditions: responders compared to non-responders

## CNC1(c2ccccc2Cl)CCCCC1=O (racemic) [Ketamine, (RS)-2-(2-Chlorophenyl)-2-(methylamino)cyclohexanone]
[1]
  time to anti-depression efficacy: ≤ 1 h
[2]; 240 min post-infusion (Haile et al. 2014)
  plasma BDNF levels: significantly increased
[2]; post-infusion of ketamine (Example 1)
  plasma BDNF levels: increases plasma BDNF levels
